Assays:
cyclooxygenase 2 mRNA = assay: LPS-induced cyclooxygenase 2 mRNA synthesis in RAW264.7 cells (RT-PCR); assay type: cell-based; conditions: 50 μl of 10 mM solution per 5 ml, added 0 or 6 hours before LPS
Description: (2) RAW264.7 cells (ATCC TIB 71) were suspended in Dulbecco's modified Eagle's medium (Bio Whittaker, 12-604F) containing 10% fetal calf serum (Gibco) at a concentration of 3×10^5 cells/ml. 5 ml of the suspension was added to each well of a 6-well microtiter plate and the plate was incubated at 37° C. overnight in the presence of 5% CO2. 50 μl of a solution containing agarobiose or agarohexaose at a concentration of 10 mM in water was added to the well. The plate was incubated for 0 or 6 hours. 50 μl of a solution containing lipopolysaccharide (LPS, Sigma, L-2012) at a concentration of 100 μg/ml in water was added to the well. The plate was incubated for additional 5 hours. The culture supernatant was removed, and 1 ml of a solution of Catrimox-14 (a product of Iowa Biotechnology sold by Takara Shuzo, WA002) was added to the well. After pipetting, the solution was collected. An RNA was prepared according to the attached protocol. The RNA prepared as described above was subjected to RT-PCR using RNA-PCR Kit (AMV) Ver. 2.1 (Takara Shuzo, R019A). A reverse transcription reaction was conducted using a random primer (N6) (Takara Shuzo, 3801) at 30° C. for 10 minutes, at 42° C. for 30 minutes and 99° C. for 5 minutes. […]

DSEK cells = assay: Growth of DSEK cells (in vitro rheumatoid model), WST-1; assay type: cell-based, human
Description: DSEK cell is a fibroblast cell line established from a synovial membrane of a human patient with chronic rheumatism and is held at Department of Second Internal Medicine, Integrated Medical Center, Saitama Collage of Medicine as an in vitro rheumatoid model. DSEK cells were cultured in Iscov-MEM medium (IMDM: Gibco-BRL) containing 10% FBS (Bio Whittaker) at 37° C. in the presence of 5% CO2 to saturation of culture vessel. The cells were suspended in the same medium at a concentration of 3×10^4 cells/ml using a trypsin-EDTA solution (Bio Whittaker). 200 μl of the suspension was dispensed into each well of a 96-well microtiter plate (Falcon). […]
10 μl of Premix WST-1 (Takara Shuzo, MK400) was added to one of the wells at intervals of 24 hours up to 72 hours after the medium change. The mixture was reacted at 37° C. for 3.5 hours. The degree of cell growth was expressed by a value obtained by subtracting the absorbance at 650 nm (A650) from the absorbance at 450 nm (A450).

human IL-10 = assay: IL-10 production from DSEK cells (ELISA); assay type: cell-based; conditions: DSEK culture supernatant
Description: (§1) 150 μl of a culture supernatant was collected from a well containing a culture of DSEK cells over time at intervals of 24 hours. The effects of agarobiose on the production (expression) of cytokines (human TGF-β, human FGF-β and human IL-10) from the cell were determined using ELISA kits specific for the respective cytokines (from Intergen for human FGF-β and human IL-10; and from Promega for human TGF-β).

human FGF-β = assay: FGF-β production from DSEK cells (ELISA); assay type: cell-based; conditions: DSEK culture supernatant
Description: as §1

human TGF-β = assay: TGF-β production from DSEK cells (ELISA); assay type: cell-based; conditions: DSEK culture supernatant
Description: as §1

celiac macrophages = assay: TPA-induced IL-6 production in celiac macrophages; assay type: cell-based, mouse; conditions: 5 μl of 20, 10 or 5 mM solution per 500 μl; 14 hours; concentration dependent; FIG. 16
Description: 4 ml of RPMI 1640 medium (Bio Whittaker, 12-702F) containing 10% fetal calf serum was intraperitoneally injected into ddy mouse (Japan SLC, female, 7 weeks old) The medium was removed after extensive massage to obtain celiac cells. The celiac cells were suspended in RPMI 1640 medium containing 10% fetal calf serum at a concentration of 10^6 cells/ml. 500 μl of the suspension was added to each well of a 48-well microtiter plate and the plate was incubated at 37° C. for 2 hours in the presence of 5% CO2. Adhesive cells obtained by removing the culture supernatant were used as celiac macrophaaes. 500 μl of fresh Dulbecco's modified Eagle's medium (Bio Whittaker, 12-917F) without Phenol Red containing 10% fetal calf serum and 2 mM L-glutamine was added to each well. 5 μl of 20, 10 or 5 mM aqueous solution of agarobiose obtained in Referential Example 1 and 5 μl of 10 μg/ml aqueous solution of 12-O-tetradecanoylphorbol 13-acetate (TPA, Gibco, 13139-019) were added to the well. The plate was incubated for additional 14 hours, and the culture supernatant was then collected. The content of interleukin 6 (IL-6) in the culture supernatant was measured using enzyme immuno sandwich assay (ELISA; Matched antibody Pair Sample Pak-mouse IL6, Endogen). As a control, a group to which the agarobiose aqueous solution or the TPA aqueous solution was not added was provided. […]

In the case of `OCC1OC(OC2C3COC2C(O)C(OC2C(O)C(CO)OC(OC4C5COC4C(O)C(OC4C(O)C(CO)OC(OC6C7COC6C(O)C(O)O7)C4O)O5)C2O)O3)C(O)C(O)C1O` (stereo not shown) [Agarohexaose, agarohexaose], the “increase in the cyclooxygenase 2 mRNA synthesis induced by LPS” value (cyclooxygenase 2 mRNA) is reported as “not suppressed”.

With `OC[C@H]1O[C@@H](O[C@H]2[C@H]3OC[C@@H]2OC(O)[C@H]3O)[C@H](O)[C@@H](O)[C@H]1O` (mixture of isomers) [Agarobiose, agarobiose] the “Degree of cell growth (A450-650)” value (DSEK cells; 50 μM, 24 hr) was 1.00 A450-650, the “Degree of cell growth (A450-650)” value (DSEK cells; 50 μM, 48 hr) was 1.49 A450-650 and the “Degree of cell growth (A450-650)” value (DSEK cells; 50 μM, 72 hr) was 1.27 A450-650. The “Degree of cell growth (A450-650)” value (DSEK cells; 100 μM, 24 hr) was 0.88 A450-650, the “Degree of cell growth (A450-650)” value (DSEK cells; 100 μM, 48 hr) was 1.87 A450-650 and the “Degree of cell growth (A450-650)” value (DSEK cells; 100 μM, 72 hr) was 1.26 A450-650. For the same molecule, the “Degree of cell growth (A450-650)” value (DSEK cells; 200 μM, 24 hr) was 0.89 A450-650, the “Degree of cell growth (A450-650)” value (DSEK cells; 200 μM, 48 hr) was 1.50 A450-650 and the “Degree of cell growth (A450-650)” value (DSEK cells; 200 μM, 72 hr) was 0.93 A450-650. The “Degree of cell growth (A450-650)” value (DSEK cells; 400 μM, 24 hr) was 0.87 A450-650, the “Degree of cell growth (A450-650)” value (DSEK cells; 400 μM, 48 hr) was 0.52 A450-650 and the “Degree of cell growth (A450-650)” value (DSEK cells; 400 μM, 72 hr) was 0.47 A450-650. The “Degree of cell growth (A450-650)” value (DSEK cells; 800 μM, 24 hr) was 0.54 A450-650, the “Degree of cell growth (A450-650)” value (DSEK cells; 800 μM, 48 hr) was 0.45 A450-650 and the “Degree of cell growth (A450-650)” value (DSEK cells; 800 μM, 72 hr) was 0.56 A450-650. For the same molecule, the IC50 (DSEK cells; 72 hours, read-out: concentration that resulted in the inhibition of the growth of half cells (IC50)) was 169 µM, the “production of human IL-10” value (human IL-10) was “activities of inhibiting the production” and the “production of human FGF-β” value (human FGF-β) was “activities of inhibiting the production”. For the same molecule, the “production of human TGF-β” value (human TGF-β) was “activities of inhibiting the production”, the “increase in the cyclooxygenase 2 mRNA synthesis induced by LPS” value (cyclooxygenase 2 mRNA) was “not suppressed” and the “TPA-induced IL-6 production” value (celiac macrophages) was “suppression of TPA-induced IL-6 production”.
